Here are results for five compounds from patent publication US10919896B2, “Preparation and uses of pyrimidinone derivatives” (Cancer Research Technology Limited, priority 2016, dated 2021).

SMILES strings stand for the structures. Where a name gives a salt, the structure may show the parent alone.

This test has as its system Cdc7 (pS53MCM2 levels in SW48 cells). Put plainly: Cdc7 Cell Pharmacodynamics Assay Method 3: pS53MCM2 levels in SW48 cells, 6 hours. Type of test: cell-based. Particulars: Homo sapiens, SW48, 6 h, read-out: Biomarker Method 3 (pEC50) (converted).
On to `O=c1[nH]c(-c2ccnc(F)c2)nc(N2CCNCC(F)(F)C2)c1Cl` [Compound 312, 5-chloro-4-(6,6-difluoro-1,4-diazepan-1-yl)-2-(2-fluoro-4-pyridyl)-1H-pyrimidin-6-one hydrochloride], for which the EC50 was 145 nM. In the case of `C[C@@H]1CNCCN1c1nc(-c2ccnc(F)c2)[nH]c(=O)c1Cl` [Compound 323], the EC50 is 79.4 nM. As for `O=c1[nH]c(-c2ccnc(F)c2)nc(N2CCCC(F)(F)C2)c1Cl` [Compound 90, 5-chloro-4-(3,3-difluoro-1-piperidyl)-2-(2-fluoro-4-pyridyl)-1H-pyrimidin-6-one], the EC50 is 589 nM. With `O=c1[nH]c(-c2ccncc2)nc(N2CCN[C@H](C(F)(F)F)C2)c1Cl` [Compound 139] the figure was 4070 nM; with `O=c1[nH]c(-c2ccncc2)nc(N2CCN[C@@H](C(F)(F)F)C2)c1Cl` [Compound 180], 339 nM.
